Results published in BigSolDB 2.1.

CC(C)c1ccc2sc3ccccc3c(=O)c2c1
Conditions | solubility (mole fraction)
in 1,2-dichloroethane, 306.25 K | 0.392
in 1,2-dichloroethane, 309.15 K | 0.424
in 1,2-dichloroethane, 311.25 K | 0.455
in 1,2-dichloroethane, 315.15 K | 0.486
in 1,2-dichloroethane, 318.15 K | 0.516
in 1,2-dichloroethane, 321.15 K | 0.546
in 1,2-dichloroethane, 324.65 K | 0.572
in 1,2-dichloroethane, 326.85 K | 0.615
in 1,4-dioxane, 307.15 K | 0.34
in 1,4-dioxane, 310.15 K | 0.381
in 1,4-dioxane, 314.05 K | 0.429
in 1,4-dioxane, 317.15 K | 0.475
in 1,4-dioxane, 320.05 K | 0.512
in 1,4-dioxane, 323.15 K | 0.543
in 1,4-dioxane, 326.65 K | 0.589
in 1,4-dioxane, 329.85 K | 0.637
in acetone, 299.15 K | 0.126
in acetone, 303.15 K | 0.167
in acetone, 307.15 K | 0.219
in acetone, 310.15 K | 0.266
in acetone, 314.25 K | 0.319
in acetone, 317.15 K | 0.358
in acetone, 320.15 K | 0.383
in acetone, 323.15 K | 0.417
in ethanol, 305.65 K | 0.0424
in ethanol, 307.95 K | 0.0493
in ethanol, 309.65 K | 0.0557
in ethanol, 312.15 K | 0.0703
in ethanol, 315.15 K | 0.1
in ethanol, 318.15 K | 0.154
in ethanol, 321.15 K | 0.26
in ethyl acetate, 305.25 K | 0.192
in ethyl acetate, 308.15 K | 0.24
in ethyl acetate, 311.65 K | 0.283
in ethyl acetate, 314.15 K | 0.325
in ethyl acetate, 317.05 K | 0.355
in ethyl acetate, 320.15 K | 0.409
in ethyl acetate, 323.65 K | 0.461
in ethyl acetate, 327.15 K | 0.511
in methanol, 299.15 K | 0.00556
in methanol, 302.15 K | 0.00643
in methanol, 305.15 K | 0.00761
in methanol, 308.15 K | 0.00911
in methanol, 311.15 K | 0.0113
in methanol, 314.15 K | 0.0145
in methanol, 317.15 K | 0.0196
in methanol, 320.15 K | 0.0264
in toluene, 304.65 K | 0.332
in toluene, 308.15 K | 0.374
in toluene, 311.65 K | 0.412
in toluene, 315.15 K | 0.453
in toluene, 318.15 K | 0.489
in toluene, 321.05 K | 0.526
